Experimental data published in paper PMC5421785, “Citrullination only infrequently impacts peptide binding to HLA class II MHC” (PLoS ONE, 2017).
Where two headings read alike, the source gives them in different places. Each block holds one compound with its values, some of them ahead of it. Square brackets hold non-standard residues; d marks the D form. Ends that are not written are not given here. Peptide text beside a SMILES is read from it. Cit = NC(=O)NCCC[C@H](N)C(=O)O

What was measured:
HLA-DRB1*01:01 = molecular target: T1, HLA-DRB1*01:01 (Homo sapiens, UniProt P01903+P01911, A100R/D57E/F55L/F60I/F76Y/I96L/L162R/M171V/P40L/Q125E/R42F/V115G/Y59C); assay: HLA class II peptide binding, inhibition of radiolabeled peptide binding to purified MHC; conditions: for DRB1*01:01 binding capacity, WT/cit ratio: ratio of WT IC50 to Cit IC50, >1 = citrullination increases binding
T1 construct: EBV transformed homozygous cell lines were used as sources of MHC molecules; endogenous in cells; host or cells: EBV transformed homozygous cell lines

HLA-DRB1*04:01 = molecular target: T2, HLA-DRB1*04:01 (Homo sapiens, UniProt P01903+P01911, A100K/A169T/F76Y/I96L/K127E/L162R/M171V/N62H/P40V/Q125Y/R42H/S133A/S149N/S66Y/V115G/V209L/W38E); assay: as above; conditions: for DRB1*04:01 binding capacity, WT/cit ratio: ratio of WT IC50 to Cit IC50, >1 = citrullination increases binding
T2 construct: EBV transformed homozygous cell lines were used as sources of MHC molecules; endogenous in cells; host or cells: EBV transformed homozygous cell lines

[1] = citrullinated 15-mer (X), purified MHC, inhibition of radiolabeled peptide binding, dash = IC50 >40,000 nM, read-out: DRB1*01:01 binding capacity, Cit peptide (IC50 nM)
[2] = citrullinated 15-mer (X), purified MHC, inhibition of radiolabeled peptide binding, dash = IC50 >40,000 nM, read-out: DRB1*04:01 binding capacity, Cit peptide (IC50 nM)
[3] = citrullinated 15-mer peptide (X = citrulline), purified HLA-DRB1*01:01, read-out: DRB1*01:01 binding capacity, Cit peptide (IC50 nM)
[4] = citrullinated 15-mer peptide (X = citrulline), purified HLA-DRB1*04:01, read-out: DRB1*04:01 binding capacity, Cit peptide (IC50 nM)
[5] = wild-type (unmodified Arg) 15-mer peptide, purified HLA-DRB1*01:01, read-out: DRB1*01:01 binding capacity, WT peptide (IC50 nM)
[6] = wild-type (unmodified Arg) 15-mer peptide, purified HLA-DRB1*04:01, read-out: DRB1*04:01 binding capacity, WT peptide (IC50 nM)
[7] = read-out: DRB1*01:01 binding capacity, WT peptide (IC50 nM)
[8] = read-out: DRB1*04:01 binding capacity, WT peptide (IC50 nM)

- IC50 (HLA-DRB1*01:01; [1]): 14800 nM
- IC50 (HLA-DRB1*04:01; [2]): > 40000 nM
Compound: CSCC[C@H](NC(=O)[C@H](CCC(=O)O)NC(=O)[C@H](CCC(=O)O)NC(=O)[C@H](CCC(=O)O)NC(=O)[C@H](Cc1ccc(O)cc1)NC(=O)[C@H](CC(C)C)NC(=O)[C@H](CC(=O)O)NC(=O)CNC(=O)[C@@H](N)CC(C)C)C(=O)N[C@@H](CCCNC(=N)N)C(=O)N[C@@H](CCC(=O)O)C(=O)N[C@@H](CC(C)C)C(=O)N[C@@H](CCCNC(=N)N)C(=O)N[C@@H](CCCNC(N)=O)C(=O)N[C@@H](CCC(N)=O)C(=O)O [LGDLYEEEMRELRXQ]

- IC50 (HLA-DRB1*01:01; [3]): > 40000 nM
- DRB1*01:01 binding capacity, WT/cit ratio (HLA-DRB1*01:01): 1.0
- IC50 (HLA-DRB1*04:01; [4]): > 40000 nM
- DRB1*04:01 binding capacity, WT/cit ratio (HLA-DRB1*04:01): 1.0
Compound: C[C@H](NC(=O)CNC(=O)[C@@H]1CCCN1C(=O)[C@H](CO)NC(=O)CNC(=O)[C@H](CCC(=O)O)NC(=O)[C@@H](N)CCCNC(N)=O)C(=O)N[C@@H](CC(=O)O)C(=O)NCC(=O)N1CCC[C@H]1C(=O)N1CCC[C@H]1C(=O)NCC(=O)N[C@@H](CCCNC(=N)N)C(=O)N[C@@H](CC(=O)O)C(=O)NCC(=O)O [XEGSPGADGPPGRDG] (H-[Cit]EGSPGADGPPGRDG-OH; N-terminus and C-terminus assumed)

- IC50 (HLA-DRB1*01:01; [3]): 24200 nM
- IC50 (HLA-DRB1*04:01; [4]): 17500 nM
Compound: CSCC[C@H](NC(=O)[C@H](CCC(N)=O)NC(=O)[C@H](CCCNC(=N)N)NC(=O)[C@H](CCC(=O)O)NC(=O)[C@H](CC(C)C)NC(=O)[C@H](CO)NC(=O)[C@H](CCC(=O)O)NC(=O)[C@H](CC(N)=O)NC(=O)[C@@H](NC(=O)CNC(=O)[C@H](CCCCN)NC(=O)[C@H](CC(C)C)NC(=O)[C@H](C)NC(=O)[C@@H](N)CC(=O)O)[C@@H](C)O)C(=O)N[C@@H](CCCNC(N)=O)C(=O)O [DALKGTNESLERQMX] (H-DALKGTNESLERQM[Cit]-OH)

- IC50 (HLA-DRB1*01:01; [1]): 541 nM
- IC50 (HLA-DRB1*04:01; [2]): 918 nM
Compound: CC(C)C[C@H](NC(=O)[C@H](CO)NC(=O)[C@H](Cc1ccccc1)NC(=O)[C@H](CC(=O)O)NC(=O)[C@@H](NC(=O)[C@H](CO)NC(=O)[C@H](CC(=O)O)NC(=O)[C@H](CCC(N)=O)NC(=O)[C@H](CC(C)C)NC(=O)[C@H](CC(C)C)NC(=O)[C@H](CCCNC(N)=O)NC(=O)[C@@H](NC(=O)CN)C(C)C)C(C)C)C(=O)N[C@@H](C)C(=O)N[C@@H](CC(=O)O)C(=O)O [GVXLLQDSVDFSLAD]

- IC50 (HLA-DRB1*01:01; [3]): 31100 nM
- IC50 (HLA-DRB1*04:01; [4]): > 40000 nM
Compound: N=C(N)NCCC[C@H](NC(=O)[C@H](CCC(=O)O)NC(=O)CNC(=O)[C@H](CCCNC(=N)N)NC(=O)[C@@H]1CCCN1C(=O)CN)C(=O)NCC(=O)N[C@@H](Cc1ccccc1)C(=O)N1CCC[C@H]1C(=O)NCC(=O)N[C@@H](CCC(=O)O)C(=O)N[C@@H](CCCNC(N)=O)C(=O)NCC(=O)N[C@@H](CO)C(=O)N1CCC[C@H]1C(=O)O [GPRGERGFPGEXGSP] (H-GPRGERGFPGE[Cit]GSP-OH)

- IC50 (HLA-DRB1*01:01; [3]): > 40000 nM
- DRB1*01:01 binding capacity, WT/cit ratio (HLA-DRB1*01:01): 1.0
- IC50 (HLA-DRB1*04:01; [4]): > 40000 nM
- DRB1*04:01 binding capacity, WT/cit ratio (HLA-DRB1*04:01): 1.0
Compound: C[C@H](NC(=O)CNC(=O)[C@H](CCCCN)NC(=O)[C@@H]1CCCN1C(=O)CNC(=O)[C@H](CC(=O)O)NC(=O)[C@H](CCCCN)NC(=O)CNC(=O)[C@H](CO)NC(=O)[C@@H]1CCCN1C(=O)CN)C(=O)N[C@@H](CCCNC(N)=O)C(=O)NCC(=O)N[C@@H](CC(=O)O)C(=O)N[C@@H](CO)C(=O)O [GPSGKDGPKGAXGDS] (H-GPSGKDGPKGA[Cit]GDS-OH; N-terminus and C-terminus assumed)

- IC50 (HLA-DRB1*01:01; [5]): 192 nM
- IC50 (HLA-DRB1*04:01; [6]): 1220 nM
Compound: CC[C@H](C)[C@H](NC(=O)[C@H](CC(=O)O)NC(=O)[C@H](CC(C)C)NC(=O)[C@H](C)NC(=O)[C@H](CCSC)NC(=O)[C@H](CCCCN)NC(=O)[C@@H](NC(=O)[C@H](CC(N)=O)NC(=O)[C@H](CC(C)C)NC(=O)[C@H](CC(C)C)NC(=O)[C@H](CC(=O)O)NC(=O)[C@H](CCC(N)=O)NC(=O)[C@H](Cc1ccc(O)cc1)NC(=O)[C@H](CCC(=O)O)NC(=O)[C@@H](N)CCCNC(=N)N)C(C)C)C(=O)O [Vimentin 381 WT]

- IC50 (HLA-DRB1*01:01; [3]): 6.7 nM
- IC50 (HLA-DRB1*04:01; [4]): 5800 nM
Compound: CC[C@H](C)[C@H](NC(=O)CN)C(=O)N[C@H](C(=O)NCC(=O)N[C@@H](CC(C)C)C(=O)N1CCC[C@H]1C(=O)NCC(=O)N[C@@H](CCC(N)=O)C(=O)N[C@@H](CCCNC(=N)N)C(=O)NCC(=O)N[C@@H](CCC(=O)O)C(=O)N[C@@H](CCCNC(N)=O)C(=O)NCC(=O)N[C@@H](Cc1ccccc1)C(=O)N1CCC[C@H]1C(=O)O)C(C)C [GIVGLPGQRGEXGFP] (H-GIVGLPGQRGE[Cit]GFP-OH)

- IC50 (HLA-DRB1*01:01; [5]): 538 nM
- IC50 (HLA-DRB1*04:01; [6]): 6480 nM
Compound: PNFSSLNLRETNLDS [Vimentin 416 WT]

- IC50 (HLA-DRB1*01:01; [7]): 103 nM
- IC50 (HLA-DRB1*04:01; [8]): > 40000 nM
Compound: ERKVESLQEEIAFLK [Vimentin 221 WT]

- IC50 (HLA-DRB1*01:01; [7]): 7850 nM
- IC50 (HLA-DRB1*04:01; [8]): 18800 nM
Compound: DNASLARLDLERKVE [Vimentin 211 WT]

- IC50 (HLA-DRB1*01:01; [5]): 19 nM
- IC50 (HLA-DRB1*04:01; [6]): > 40000 nM
Compound: LGVMQGPMGPMGPRG [Collagen 196 WT]

- IC50 (HLA-DRB1*01:01; [3]): 23400 nM
- IC50 (HLA-DRB1*04:01; [4]): > 40000 nM
Compound: N=C(N)NCCC[C@H](NC(=O)[C@H](CCC(=O)O)NC(=O)CNC(=O)[C@H](CCCNC(N)=O)NC(=O)[C@@H]1CCCN1C(=O)CN)C(=O)NCC(=O)N[C@@H](Cc1ccccc1)C(=O)N1CCC[C@H]1C(=O)NCC(=O)N[C@@H](CCC(=O)O)C(=O)N[C@@H](CCCNC(=N)N)C(=O)NCC(=O)N[C@@H](CO)C(=O)N1CCC[C@H]1C(=O)O [GPXGERGFPGERGSP] (H-GP[Cit]GERGFPGERGSP-OH)

- IC50 (HLA-DRB1*01:01; [3]): 5960 nM
- IC50 (HLA-DRB1*04:01; [4]): 1160 nM
Compound: CSCC[C@H](NC(=O)[C@H](CCC(=O)O)NC(=O)[C@H](CCCNC(=N)N)NC(=O)[C@H](CCSC)NC(=O)[C@H](CCC(N)=O)NC(=O)[C@H](CCCNC(N)=O)NC(=O)[C@@H](N)CCC(=O)O)C(=O)N[C@@H](CCC(=O)O)C(=O)N[C@@H](CCC(=O)O)C(=O)N[C@@H](CC(N)=O)C(=O)N[C@@H](Cc1ccccc1)C(=O)N[C@@H](C)C(=O)N[C@H](C(=O)N[C@@H](CCC(=O)O)C(=O)N[C@@H](C)C(=O)O)C(C)C [EXQMREMEENFAVEA] (H-E[Cit]QMREMEENFAVEA-OH)

- IC50 (HLA-DRB1*01:01; [1]): 25300 nM
- IC50 (HLA-DRB1*04:01; [2]): 6330 nM
Compound: CC(C)C[C@H](NC(=O)[C@@H](NC(=O)[C@H](CC(N)=O)NC(=O)[C@H](CCC(=O)O)NC(=O)[C@H](C)NC(=O)[C@H](CCC(=O)O)NC(=O)[C@H](CCC(=O)O)NC(=O)[C@@H](N)CCCNC(N)=O)[C@@H](C)O)C(=O)N[C@@H](CCC(N)=O)C(=O)N[C@@H](CO)C(=O)N[C@@H](Cc1ccccc1)C(=O)N[C@@H](CCCNC(=N)N)C(=O)N[C@@H](CCC(N)=O)C(=O)N[C@@H](CC(=O)O)C(=O)N[C@H](C(=O)O)C(C)C [XEEAENTLQSFRQDV] (H-[Cit]EEAENTLQSFRQDV-OH)

- IC50 (HLA-DRB1*01:01; [1]): 729 nM
- IC50 (HLA-DRB1*04:01; [2]): > 40000 nM
Compound: CC[C@H](C)[C@H](NC(=O)[C@@H](N)CC(=O)O)C(=O)N[C@@H](CCSC)C(=O)N[C@@H](CCCNC(=N)N)C(=O)N[C@@H](CC(C)C)C(=O)N[C@@H](CCCNC(N)=O)C(=O)N[C@@H](CCC(=O)O)C(=O)N[C@@H](CCCCN)C(=O)N[C@@H](CC(C)C)C(=O)N[C@@H](CCC(N)=O)C(=O)N[C@@H](CCC(=O)O)C(=O)N[C@@H](CCC(=O)O)C(=O)N[C@@H](CCSC)C(=O)N[C@@H](CC(C)C)C(=O)N[C@@H](CCC(N)=O)C(=O)O [DIMRLXEKLQEEMLQ] (H-DIMRL[Cit]EKLQEEMLQ-OH)

- IC50 (HLA-DRB1*01:01; [1]): 7340 nM
- IC50 (HLA-DRB1*04:01; [2]): 22200 nM
Compound: CC(C)C[C@H](NC(=O)[C@H](C)NC(=O)[C@H](CC(=O)O)NC(=O)[C@H](CC(N)=O)NC(=O)[C@H](CC(N)=O)NC(=O)[C@H](CCCNC(N)=O)NC(=O)[C@H](CC(N)=O)NC(=O)[C@H](C)NC(=O)[C@H](C)NC(=O)[C@H](CCC(=O)O)NC(=O)[C@H](CO)NC(=O)[C@H](CC(C)C)NC(=O)[C@H](CC(=O)O)NC(=O)[C@H](C)N)C(=O)N[C@@H](CCCNC(=N)N)C(=O)O [ADLSEAANXNNDALR] (H-ADLSEAAN[Cit]NNDALR-OH)
